In general, melting point refers to the temperature, or range, at which the solid turns liquid.

In turn, `Cc1cc(/C(=C/Nc2ccc(Cl)cc2)C(=O)Nc2ccc(Cl)cc2)no1` [Example 8, N-(4-Chlorophenyl)-α-[[4-(chlorophenyl)amino]methylene]-5-methyl-3-isoxazoleacetamide] yielded a melting point of 179 to 180 °C.

In turn, `CCOc1ccc(N/C=C(\C(=O)Nc2ccccc2)c2cc(C)no2)cc1` [Example 3, α-[[(4-Ethoxyphenyl)amino]methylene]-3-methyl-N-phenyl-5-isoxazoleacetamide] gave a melting point of 114 to 115 °C.

Values taken from patent publication US7820663B2, “Substituted enaminones, their derivatives and uses thereof” (The Regents of the University of California, priority 2005, dated 2010).
